Measurements taken from patent US5801263A, “Process for preparing tertiary phosphines containing phosphinate or phosphonate groups, and novel tertiary phosphines containing phosphinate groups” (Hoechst Aktiengesellschaft, priority 1996, dated 1998).
Counter-ions that a name gives are not always drawn.

Tests used:
[1] = in water, at 20° C.; cited from earlier work
[2] = Solubility in water; format: physicochemical; conditions: sodium salt, no temperature printed for this value
Protocol: 100 ml of a 3.7% strength by weight sodium hydrogen carbonate solution (44.1 mmol NaHCO3) are added to 15.0 g (44.1 mmol) of (4-diphenylphosphinophenyl)methylphosphinic acid and the mixture stirred at room temperature until CO2 formation has ended. The aqueous solution is completely evaporated and dried under reduced pressure. 15.6 g (97% of theory) of sodium (4-diphenylphosphinophenyl)methylphosphinate are obtained. Solubility in water: 590 g/l

Compound | water solubility (literature comparison) [1] [mg/mL] | Solubility in water [2] [mg/mL]
O=S(=O)(O)c1cccc(P(c2ccccc2)c2ccccc2)c1 [Na[TPPMS], sodium salt of triphenylphosphinemonosulfonate] | 80 | 
CP(=O)(O)c1ccc(P(c2ccccc2)c2ccccc2)cc1 [Sodium (4-diphenylphosphinophenyl)methylphosphinate] |  | 590
disodium salt of triphenylphosphinemonophosphonate [Na2 TPPMP] | 380 | 
